Holding throughout (test): NCI tumour cell line growth inhibition, 48 h
Assay [1] concerns OVCAR-5.
The subject of assay [2] is TK-10.
The subject of assay [3] is MDA-MB-231.
Assay [4] has as its system SF-539.
Assay [5] has as its system COLO 205.
Assay [6] has as its system MOLT-4.
Assay [7] concerns SNB-75.
The test system of assay [8] is MDA-MB-435.
Assay [9] deals with K562.
The test system of assay [10] is T47D.
The test system of assay [11] is EKVX.
For assay [12], the system named is UACC-257.
Assay [13] deals with NCI/ADR-RES.
Assay [14] relates to NCI-H226.
In assay [15] the test system is SF-268.
The test system of assay [16] is BT-549.
Assay [17] has as its system SK-OV-3.
Assay [18] concerns SK-MEL-5.
Assay [19] has as its system HOP-92.
Assay [20] concerns RXF 393.

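Five concentrations, 48 hours, 96-well plates. At the GI50, growth is halved.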 Active and inactive are the calls of the source. Rule as the data show it: active = GI50 up to about 1.1 µM and inactive = higher.

As for `O=N/N=c1\o[n-][n+](CCc2ccccc2)c1Cc1/c(=N/N=O)o[n-][n+]1CCc1ccccc1`, the GI50 is > 100 µM (inactive) in assay [1]; 25.2 µM (inactive) in assay [2]; 33.9 µM (inactive) in assay [3]; 20.7 µM (inactive) in [4]; > 100 µM (inactive) in [5]; > 100 µM (inactive) in assay [6]. For the same molecule, the GI50 in [7] is 19 µM (inactive); in assay [8] it was 39.7 µM (inactive); in [9] it was 25.2 µM (inactive); in assay [10], 27.9 µM (inactive); in assay [11], 50 µM (inactive); in [12], > 100 µM (inactive). Moreover, the GI50 is > 100 µM (inactive) in [13]; 29.9 µM (inactive) in assay [14]; 32 µM (inactive) in [15]; 32.9 µM (inactive) in assay [16]; 34.4 µM (inactive) in assay [17]; 31.2 µM (inactive) in assay [18]. For the same molecule, the GI50 was 27.1 µM (inactive) in assay [19] and 39.2 µM (inactive) in assay [20].
With `CCOC(=O)C(=O)CC(=O)C1=C(c2ccccc2OC)CC(c2cccs2)=CC1=O`, the GI50 was > 100 µM (inactive) in assay [1]; > 100 µM (inactive) in assay [2]; 93.3 µM (inactive) in assay [3]; 67.1 µM (inactive) in assay [4]; 39.7 µM (inactive) in [5]; 37.1 µM (inactive) in assay [6]. Besides, the GI50 in assay [7] is 0.418 µM (active); in assay [8], 35.9 µM (inactive); in [9], 23.4 µM (inactive); in [10], 90.6 µM (inactive); in [11], > 100 µM (inactive); in assay [12], > 100 µM (inactive). For the same molecule, the GI50 in assay [13] is 46 µM (inactive); in [14], > 100 µM (inactive); in assay [15], > 100 µM (inactive); in assay [16], > 100 µM (inactive); in assay [17], 29.7 µM (inactive); in [18], 44.1 µM (inactive). The GI50 in assay [19] is 71.1 µM (inactive); in [20] it was 86.9 µM (inactive).
For `COC(=O)C(Cc1ccccc1)NC(=O)CNC(=O)CSc1nnc(COc2ccc(Cl)cc2)n1-c1ccccc1` (stereo not drawn), the GI50 was 18.7 µM (inactive) in [1]; 14.5 µM (inactive) in [2]; 17 µM (inactive) in assay [3]; 17.6 µM (inactive) in assay [4]; 16.2 µM (inactive) in [5]; 3.55 µM (inactive) in assay [6]. The GI50 was 17.9 µM (inactive) in [7]; 18.2 µM (inactive) in assay [8]; 25.3 µM (inactive) in assay [9]; 12.5 µM (inactive) in assay [10]; 20.4 µM (inactive) in assay [11]; 15.2 µM (inactive) in [12]. Besides, the GI50 in assay [13] is 20 µM (inactive); in assay [14], 16.5 µM (inactive); in assay [15], 17.1 µM (inactive); in assay [16], 18.7 µM (inactive); in [17], 14.5 µM (inactive); in [18], 16.1 µM (inactive). Further, the GI50 was 17.4 µM (inactive) in assay [19] and 16.7 µM (inactive) in assay [20].
Consider `CCOP(=O)(OCC)/C(=C\N1C(=O)CC(=O)NC1=S)C(=O)OC`, for which the GI50 in assay [1], in assay [2], in assay [3], in assay [4], in assay [5] and in [6] was > 100 µM (inactive) each time. Also, the GI50 in assay [7], in [8], in [10], in assay [11], in [12] and in assay [13] was > 100 µM (inactive) in each case. Further, the GI50 in assay [14], in assay [15], in assay [16], in assay [17], in assay [18] and in [19] was > 100 µM (inactive) each time. In assay [20], the GI50 was > 100 µM (inactive).
As for `CC(C)(C)OC(=O)N1C[C@H](CC(=O)OCc2ccccc2)C[C@H]1C(=O)OCC(Cl)(Cl)Cl`, the GI50 in assay [1] was 20.2 µM (inactive); in [2] it was 15.9 µM (inactive); in [3] it was 11.3 µM (inactive); in assay [4] it was 14.5 µM (inactive); in assay [5], 3.18 µM (inactive); in [6], 1.19 µM (inactive). In addition, the GI50 is 10.5 µM (inactive) in assay [7]; 5.31 µM (inactive) in assay [8]; 2 µM (inactive) in assay [9]; 1.64 µM (inactive) in assay [10]; 2.78 µM (inactive) in assay [11]; 5.89 µM (inactive) in assay [12]. Moreover, the GI50 is 2.64 µM (inactive) in assay [13]; 3.55 µM (inactive) in [14]; 8.28 µM (inactive) in [15]; 8.15 µM (inactive) in assay [16]; > 50 µM (inactive) in assay [17]; 2.24 µM (inactive) in assay [18]. Further, the figures for the GI50 in assay [19] and in [20] were 1.79 µM (inactive) and 6.15 µM (inactive), respectively.
Turning to `CN(C)CCNC(=O)c1ccc(Cl)c2cc3ccccc3nc12`, the GI50 in [1] is 1.83 µM (inactive); in [2], 1.07 µM (active); in [3], 1.05 µM (active); in assay [4] it was 0.946 µM (active); in assay [5] it was 0.446 µM (active); in assay [6], 0.265 µM (active). Also, the GI50 was 1.67 µM (inactive) in assay [7]; 0.951 µM (active) in assay [8]; 0.553 µM (active) in assay [9]; 3.01 µM (inactive) in [10]; 1.7 µM (inactive) in assay [11]; 0.885 µM (active) in [12]. Also, the GI50 in assay [13] was 0.927 µM (active); in assay [14] it was 0.918 µM (active); in assay [15], 0.962 µM (active); in [16], 2.35 µM (inactive); in assay [17], 2.06 µM (inactive); in assay [18] it was 1.16 µM (inactive). Also, the values for the GI50 in assay [19] and in assay [20] were 0.187 µM (active) and 1.07 µM (active), respectively.
For `NC(=O)c1c2c(n3ccccc13)C(=O)c1ccccc1C2=O`, the GI50 in assay [2] was > 100 µM (inactive); in assay [3] it was 38.5 µM (inactive); in [4], 39.6 µM (inactive); in [5], 39.6 µM (inactive); in assay [6], > 100 µM (inactive); in assay [7], 37.6 µM (inactive). The GI50 is 20.2 µM (inactive) in assay [8]; > 100 µM (inactive) in assay [9]; > 100 µM (inactive) in assay [10]; > 100 µM (inactive) in assay [11]; 32.1 µM (inactive) in assay [12]; > 100 µM (inactive) in [13]. Besides, the GI50 was 52.4 µM (inactive) in [14]; > 100 µM (inactive) in [15]; > 100 µM (inactive) in [16]; > 100 µM (inactive) in assay [17]; 16.1 µM (inactive) in assay [18]; 31 µM (inactive) in [19]. In addition, in assay [20], the GI50 was 37 µM (inactive).

(Values after ChEMBL document CHEMBL1201862, “PubChem BioAssay data set” (2004).)
